Data: patent publication US20220290196A1, “GENETICALLY ENGINEERED MICROBES AND BIOSYNTHETIC METHODS” (The Regents of the University of California, priority 2019, published 2022)
“And” between values parts separate entries of the source, which are not always exact repeats. Equal entries are not always repeated. Where two headings read alike, the source gives them in different places.

Experiments:
[1] = system: Tar13 Tar14 Tar16; experiment: One-pot Tar13/Tar14/Tar16 conversion of L-Trp to L-4-Cl-Kyn; type: biochemical, Saccharomonospora sp. CNQ-490
Method: Buffer: up to 100 μL (50 mM Tris, 500 mM NaCl (or KBr) 10% glycerol, pH 8.0)
(§1) Tar14 (added last): 2.5 μM
Incubate 45 min at 30° C., followed by addition of premixed:
Buffer: up to 50 μL (50 mM Tris, 500 mM NaCl (or KBr) 10% glycerol, pH 8.0)
The reactions were incubated at 30° C. overnight, after which the assays were quenched by addition of equal volume of HPLC grade methanol and frozen at −70° C. till further analysis by LCMS.

[2] = system: Tar14; experiment: Tar14 in vitro halogenation assay with substrate analogues; type: biochemical, Saccharomonospora sp. CNQ-490
Method: Tar14. Tar14 reaction mixture of total volume 100 μL in 1.5 mL Eppendorf tube was composed of the following components:
Buffer (10 mM Tris, 10% glycerol, pH 7.6): up to 100 μL

[3] = system: Tar13; experiment: Tar13 in vitro assay with substrate analogues; type: biochemical, Saccharomonospora sp. CNQ-490
Method: Tar13. Upon testing different reaction compositions (buffers, concentration of ascorbic acids and hemin, pH), the following conditions were found as optimal:
Buffer: up to 50 μL (50 mM Tris, 500 mM NaCl 10% glycerol, pH 8.0)
(§2) In a separate Eppendorf tube premix:
Add substrate solution to the enzyme mixture to start reaction
When Tar13 was directly added to the enzyme reaction, immediate protein precipitation occurred. The same was observed if the enzyme was not pre-mixed with hemin and ascorbic acid. Full substrate conversion was achieved after overnight incubation at 30° C. in 1.5 mL Eppendorf tube with shaking. The reactions were quenched by addition of equal volume of HPLC grade methanol.

[4] = system: S. coelicolor M1146-tarM1Δtar14; experiment: Feeding/chemical complementation experiment, incorporation into taromycin; type: cell-based, Streptomyces coelicolor; details: incorporation at residue-1 and residue-13; analogue fed at 2 mM; judged by comparison to taromycin yields by S. coelicolor M1146-tarM1
Method: For taromycin production, seed culture in TSBY medium was inoculated with corresponding S. coelicolor spore suspension (collected from fresh SFM plates) and was cultured for 36-48 h till a dense creamy consistency was reached. Kanamycin at 10 μg mL^−1 final concentration was added to the seed cultures of S. coelicolor M1146-pCAP01-tarM1 and S. coelicolor M1146-pCAP01-tarM1Δtar14. Inocula of seed culture (5%, v/v) were used for fermentation in MP medium (1% glucose, 1% soluble starch, 0.4% peptone, 0.3% yeast extract, 0.3% soytone, 0.2% meat extract, 0.2% CaCO3, and 0.5% NaCl, pH 7.2). Fermentation was carried out at 30° C. and 220 rpm in a rotary incubator for 6 days. A maximum of 40 mL of production medium was added into 250 mL flask with metal springs.
S. coelicolor M1146-pCAP01-tarM1Δtar14 cultures were grown as described in Section 3 for taromycin production. After 18 and 36 h of cultivation, tryptophan analogues in the form of water suspension were added to the production cultures to a final concentration 2 mM. The cultures were further incubated for 5 days before extraction and further analysis by LC-HRMS^n. All experiments were repeated independently twice with three replicates for each compound. In parallel, cultures of S. coelicolor M1146-pCAP01-tarM1 and S. coelicolor M1146-pCAP01-tarM1Δtar14 were grown as controls.
To analyze production of taromycins and analogues, solid phase extraction of the culture supernatants was performed with Amberlite XAD-16 resin (SIGMA). For analytical purposes around 1 g of washed and equilibrated resin was added to 20 mL of supernatant followed by shaking for 30-60 min. Samples were then spun down and decanted. The resin was washed twice with water (15 mL), before elution with methanol (5 mL). The methanol extracts from the resin were used for LCMS analysis without additional concentration step.

[5] = system: Tar16; experiment: Coupled Tar13/Tar16 assay (Tar16 substrate generated in situ by Tar13); type: biochemical, Saccharomonospora sp. CNQ-490; details: substrates generated in situ by Tar13; Tar16 10 μM; overnight at 30° C.
Method: Coupled Tar13 Tar]6. The reaction mixture of total volume 100 μL in 1.5 mL Eppendorf tube was composed of the following components:
Buffer: up to 50 μL (50 mM Tris, 500 mM NaCl 10% glycerol, pH 8.0
Substrate (for Tar13 enzyme): 0.25 μM
as §2
Buffer: up to […] (50 mM Tris, 500 mM NaCl 10% glycerol, pH 8.0)
Add substrate solution to the enzyme mixture to start reaction.
No difference in conversion was observed when Tar16 was added into the assay mixture either together with Tar13, or after 2 h of incubation at 30° C., or after overnight incubation at 30° C., followed by another 4 h of incubation after addition of Tar16. Therefore, for convenience, all components were mixed at the same time point, the reactions were incubated at 30° C. overnight, after which the assays were quenched by addition of equal volume of HPLC grade methanol.

[6] = Deformylation of N-formyl-L-4-Cl-Kyn on purification/lyophilization; type: physicochemical; details: mildly acidic purification conditions / after lyophilization
Method: N-formyl-L-4-Cl-kynurenine (10): The Tar13 biochemical assay was scaled to 57.6 mL (six 96 well plates with 100 μL reaction mixture as described in section 8 in each well). After overnight incubation, the assays were pooled together, frozen on dry ice, and lyophilized. The dried sample was redissolved in a 4000 μL of water/methanol (1/1) mixture and subjected to purification by preparative HPLC using method 8. Organic solvent from combined fractions (checked by direct injection into the Bruker Ion Trap mass spectrometer) was removed by evaporation at reduced pressure and the aqueous sample was frozen following by lyophilization. Due to the presence of closely eluting impurities, further purification step using semi-preparative HPLC and method 6 was used. The target peak was collected manually. After removing organic solvent under reduced pressure and lyophilization, the desired product 10 (1.8 mg) was obtained.

[7] = system: Kutzneria sp. 744 KtzR (tryptophan halogenase), SEQ ID NO: 40; details: cited from earlier work
[8] = system: Streptomyces violaceusniger SPC6 Th-Hal (C6 tryptophan halogenase), SEQ ID NO: 38; details: cited from earlier work
[9] = target: T1, Saccharomonospora sp. CNQ-490 Tar14 (flavin-dependent tryptophan halogenase), wild type, SEQ ID NO: 3 (expressed SEQ ID NO: 4); expressed with cleaved His tag SE (Saccharomonospora piscinae, UniProt W5VG40); experiment: Kinetic characterization of Tar14-catalyzed chlorination of L-tryptophan; type: biochemical; details: Tar14, L-Trp chlorination, 30° C., pH 7.6
T1 construct: flavin reductase Tar15 and PtdH as helper enzymes
T1 sequence (W5VG40 1-534): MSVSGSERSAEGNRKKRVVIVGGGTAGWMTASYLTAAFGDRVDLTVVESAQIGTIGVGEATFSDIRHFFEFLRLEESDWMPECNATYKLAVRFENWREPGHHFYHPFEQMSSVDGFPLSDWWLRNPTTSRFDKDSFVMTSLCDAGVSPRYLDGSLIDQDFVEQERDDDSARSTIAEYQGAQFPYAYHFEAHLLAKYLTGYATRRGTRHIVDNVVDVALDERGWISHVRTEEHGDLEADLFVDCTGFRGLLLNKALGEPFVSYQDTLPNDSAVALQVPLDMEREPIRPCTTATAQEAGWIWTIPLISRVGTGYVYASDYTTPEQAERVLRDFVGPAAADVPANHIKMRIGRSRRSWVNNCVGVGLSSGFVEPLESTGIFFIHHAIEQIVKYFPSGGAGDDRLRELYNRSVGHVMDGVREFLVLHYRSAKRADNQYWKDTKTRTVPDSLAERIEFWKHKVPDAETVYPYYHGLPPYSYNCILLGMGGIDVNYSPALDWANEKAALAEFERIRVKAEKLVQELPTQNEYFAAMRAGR
From the text: (§3) To determine kinetic parameters for Tar14-catalyzed chlorination of L-tryptophan, phenol was first tested as an internal standard for quantification of the product (L-6-chlorotryptophan) formation. An HPLC method that gives separation of substrate/product/internal standard peaks (method 4) was developed (FIGS. 10A and 108). It was also verified that activity of Tar14 was not affected by the presence of phenol in the reaction mixture. Using commercial standard of L-6-chlorotryptophan and phenol mixed at known concentrations, a calibration curve was built (FIGS. 10A and 10B).
(§4) Tar14 reaction mixture of total volume 100 μL in 1.5 mL Eppendorf tube was composed of the following components:
(§5) Buffer (10 mM Tris, 10% glycerol, pH 7.6) up to 100 μL
as §1
(§6) The reactions were incubated at 30° C. for 5, 10, 25, 45, 60, 120, and 240 min, after which the assays were quenched by addition of equal volume of HPLC grade methanol and frozen at −70° C. till further analysis by HPLC. All assays were performed in triplicates for each substrate concentration and every time point. In parallel, for each time point and substrate concentration, assays with no added phenol and with no added enzyme were used as controls.
(§7) Product formation was quantitated by calculating the ratio of peak areas of product to internal standard and fitting that value to a calibration curve. […]

[10] = system: Lechevalieria aerocolonigenes ATCC 39243 RebH (tryptophan halogenase), SEQ ID NO: 44; details: cited from earlier work
[11] = system: Pseudomonas fluorescens PrnA (tryptophan halogenase), SEQ ID NO: 43; details: cited from earlier work
[12] = system: Streptomyces toxytricini NRRL 15443 SttH (tryptophan halogenase), SEQ ID NO: 39; details: cited from earlier work
[13] = system: Streptomyces rugosporus LL-42D005 PyrH (C5 tryptophan halogenase), SEQ ID NO: 36; details: cited from earlier work
[14] = substrate: N[C@@H](Cc1c[nH]c2ccccc12)C(=O)O; experiment: Kinetic characterization of Tar14-catalyzed chlorination of L-tryptophan; type: biochemical, Saccharomonospora sp. CNQ-490; details: other: Tar14, L-Trp chlorination, 30° C., pH 7.6
From the text: as §3, §4, §5, §1, §6, §7

With `N[C@@H](Cc1c[nH]c2ccccc12)C(=O)O` [Compound 4, L-tryptophan] the “Production of L-4-Cl-Kyn from L-Trp in one-pot reaction” value [1] was “below 1%”, the “Enzyme assays, % conversion, Tar14, Br^−” value ([2]; KBr 100 mM, substrate 0.25 mM, Tar14 5 μM, 30° C., 4 h) was 100% and the “Enzyme assays, % conversion, Tar14, Cl^−” value ([2]; NaCl 100 mM, substrate 0.25 mM, Tar14 5 μM, 30° C., 4 h) was 100%. The “Iodination by Tar14” value ([2]; incubated with iodide) was “No iodinated tryptophan products were detected”, the “Conversion/activity as substrate for Tar13” value [3] was “only trace activity” and the “Enzyme assays, % conversion, Tar13” value ([3]; substrate 0.25 mM, Tar13 20 μM, overnight at 30° C.) was 15%. The “Feeding, % incorporation, A1 + A13 domain” value [4] was <5% and the “Enzyme assays, % conversion, Tar16” value [5] was 100%.

With `N[C@@H](CC(=O)c1ccc(Cl)cc1NC=O)C(=O)O` [Compound 10, N-formyl-L-4-Cl-kynurenine] the “Stability: deformylation to L-4-Cl-Kyn (1)” value [6] was “partial deformylation”.

In the case of `N[C@@H](Cc1c[nH]c2ccccc12)C(=O)O` [L-Trp, L-tryptophan], the Km [7] is given as 34.1 ± 2.1 µM, the kcat [7] is given as 0.0067 ± 0.0017 s⁻¹ and the Km ([8]; 30° C.) is given as 12.2 ± 1.8 µM. The kcat ([8]; 30° C.) was 0.0717 ± 0.0083 s⁻¹, the Km ([8]; 45° C.) was 20.4 ± 1.3 µM and the kcat ([8]; 45° C.) was 0.085 ± 0.0067 s⁻¹. For the same molecule, the kcat [9] was 0.0067 s⁻¹ and 0.007 ± 0.00083 s⁻¹, the Km [10] was 28.7 ± 1.3 µM and the kcat [10] was 0.01 ± 0.0017 s⁻¹. The Km [11] was 20.7 ± 0.1 µM, the kcat [11] was 0.0183 ± 0.0017 s⁻¹ and the Km [12] was 25.3 ± 3.2 µM. For the same molecule, the kcat [12] was 0.0283 ± 0.0017 s⁻¹, the Km [13] was 15.2 ± 4.2 µM and the kcat [13] was 0.04 ± 0.0067 s⁻¹.

B1: Saccharomonospora sp. CNQ-490 Tar14 (flavin-dependent tryptophan halogenase), wild type, SEQ ID NO: 3 (expressed SEQ ID NO: 4; expressed with cleaved His tag … (protein)
chain: MSVSGSERSAEGNRKKRVVIVGGGTAGWMTASYLTAAFGDRVDLTVVESAQIGTIGVGEATFSDIRHFFEFLRLEESDWMPECNATYKLAVRFENWREPGHHFYHPFEQMSSVDGFPLSDWWLRNPTTSRFDKDSFVMTSLCDAGVSPRYLDGSLIDQDFVEQERDDDSARSTIAEYQGAQFPYAYHFEAHLLAKYLTGYATRRGTRHIVDNVVDVALDERGWISHVRTEEHGDLEADLFVDCTGFRGLLLNKALGEPFVSYQDTLPNDSAVALQVPLDMEREPIRPCTTATAQEAGWIWTIPLISRVGTGYVYASDYTTPEQAERVLRDFVGPAAADVPANHIKMRIGRSRRSWVNNCVGVGLSSGFVEPLESTGIFFIHHAIEQIVKYFPSGGAGDDRLRELYNRSVGHVMDGVREFLVLHYRSAKRADNQYWKDTKTRTVPDSLAERIEFWKHKVPDAETVYPYYHGLPPYSYNCILLGMGGIDVNYSPALDWANEKAALAEFERIRVKAEKLVQELPTQNEYFAAMRAGR
notes: flavin reductase Tar15 and PtdH as helper enzymes
For B1, the Km [14] was 12.0 ± 1.9 µM.
